Experimental data: publication PMC11029812, “Liver-targeted polymeric prodrugs delivered subcutaneously improve tafenoquine therapeutic window for malaria radical cure” (Science Advances, 2024)
Entries after “also recorded” stand apart in the source; their conditions may differ.

Key:
[1] = test system: P. berghei; test: P. berghei luciferase and blood parasitemia model of causal prophylaxis; format: in vivo; settings: for Mice survived: 31 days, n = 5
Experimental: Efficacy studies in the P. berghei mouse model of causal prophylaxis were conducted at the Walter Reed Army Institute of Research, Experimental Therapeutics Branch as previously described ([46]).
Luciferase-expressing P. berghei ANKA sporozoites were obtained from laboratory-reared female Anopheles stephens mosquitoes as previously described ([46]). Sporozoites were recovered by the method of Li et al. ([62]) and quantitated using a hemocytometer. Sporozoites isolated from the same batch of mosquitoes were inoculated into mice on the same day to control biological variability in sporozoite preparations. Each animal was inoculated IV in the tail vein with approximately 10,000 sporozoites suspended in 0.1-ml volume on day 0.
Age-matched, 40 young adult (7-week-old) female C57BL/6 albino mice were purchased from Charles River Laboratories (Frederick, MD). On arrival, animals were acclimated for 7 days in quarantine. Mice were housed and maintained at a temperature range of 64° to 79°F, 34 to 68% relative humidity, and a 12-hour light/dark cycle. Food and water were provided ad libitum. Animals were fed a standard rodent maintenance diet. All animal use, care, and handling was conducted under an IACUC-approved animal use protocol in an Association for Assessment and Accreditation for Laboratory Animal Care International (AAALACi)–accredited facility with a Public Health Services Animal Welfare Assurance and in compliance with the Animal Welfare Act and other federal statutes and regulations relating to laboratory animals.
TQ was dissolved at a stock concentration of 1 mg/ml in 25% hydroxy-β-cyclodextrin acidified to pH 5 with acetic acid and diluted in DPBS for final dosing solutions. Polymers for parenteral administration were prepared in DPBS at the final dosing concentrations. All drug concentrations were calculated per the free base molecular weights of TQ. TQ parent compounds were administered intragastrically via an intragastric feeder tube. Vehicle groups (0.1 ml of DPBS) and polymer groups were administered SC in the right flank. Free TQ, vehicle, and polymers were given as a single dose on day −1. In this model, the pSVCTQ doses studied were 5.0, 7.5, or 10 mg/kg TQ equivalent.
Whole-body IVIS imaging of bioluminescence activity from luciferase-expressing P. berghei–infected mice was performed using a PerkinElmer IVIS Spectrum. Mice were evaluated at 24, 48, and 72 hours after sporozoite inoculation to determine liver- and blood-stage malaria infection. Mice received luciferin (150 mg/kg, Gold Biotechnology, St. Louis, MO) intraperitoneally in a maximal volume of 150 μl. Three minutes after luciferin administration, the mice were anesthetized with inhaled isoflurane and positioned ventral side up in the IVIS Spectrum on a 37°C platform. The mice continued to receive isoflurane through nose cone delivery. The camera exposure times used were 1 or 5 min for the 24-, 48-, and 72-hour time points with f-stop = 1, and the large binning setting was chosen. Quantitative analysis of bioluminescence emitted from whole bodies or […] (ROI) were determined by measuring the luminescence signal intensity in photons per second using the ROI settings of the Living Image 3.0 software. The ROI, expressed in total flux of photons, was set to measure the abdominal area at the location of the liver from whole-body imaging ([62]). The data were generally found to fit a normal distribution. Means and SDs of photon measurement were calculated.
On days 5 to 31 after infection, mice were analyzed for blood-stage infections by quantitation of malaria parasites in erythrocytes by flow cytometry. Blood (3 μl) from the mouse tail was collected directly into 0.3 ml of 1% heparinized isotonic buffer (PBS saline). After addition of 1 ml of 0.04% of glutaraldehyde for fixation, the samples were incubated at 4°C for 60 min. Cells were centrifuged at 450g for 5 min. […]

[2] = test system: G6PD-deficient huRBCs; test: Hemotoxicity in humanized G6PD deficiency mouse model; format: in vivo, human RBCs engrafted in NOD/SCID mice
Experimental: Following procedures as previously published ([46]), hemotoxicity studies using huRBC engraftments were conducted in mice.
Female (8 to 9 weeks) NOD.CB17-Prkdcscid/J [nonobese diabetic severe combined immunodeficient (NOD/SCID)] mice were purchased from The Jackson Laboratory (Bar Harbor, ME). The animals were housed in a cage maintained in a specific pathogen–free animal facility and were acclimated for 1 week in the facility before initiation of experimental procedures. Sterile food and water were provided ad libitum throughout the study as previously described ([64]). All animal studies were performed under IACUC-approved protocols and adhere to the principles stated in the Guide for the Care and Use of Laboratory Animals ([100]).
Polymer solutions for SC administration were prepared in DPBS at the final dosing concentrations. All drug concentrations were calculated per the free base molecular weights of TQ. The TQ parent compound was administered intragastrically via an intragastric feeder tube. Polymers and vehicle were administered SC in the right flank. TQ, pSVCTQ, and vehicle were given as a single dose on day 0. In this model, the TQ dose studied was 10 mg/kg; pSVCTQ was tested at doses of 2.5, 5.0, or 10 mg/kg TQ equivalent.
The percentage of huRBCs at the end of this period was analyzed by flow cytometry to evaluate glycophorin A (huRBCs) and Ter119 (mouse RBCs) circulating in peripheral blood. […] The G6PD-deficient huRBC NOD/SCID mice were dosed with pSVCTQ or parent drug prepared as described above, with three to four mice per group. On days 4 and 7 following dosing, huRBC levels were assessed again by flow cytometry (glycophorin^+Ter119^−), along with the percentage of murine reticulocytes (CD71^+Ter119) as an additional marker of hemolytic toxicity. Mice were euthanized on day 7 following initiation of treatment.
Microsoft Excel and GraphPad Prism were used throughout the PK analysis to process the data, calculate pharmacokinetic parameters, and yield statistical information. A linear regression model was produced using the least squares fitting method with 1/x^2 scaling for the assay calibrators. […] For the G6PD deficiency model, data analysis was performed using GraphPad Prism (GraphPad Software). […] An F test comparing the two dose-response curves was also run. For all other work, a combination of Microsoft Excel and GraphPad Prism was used.

p(GalNAc-MA-co-SVCTQ-MA) [pSVCTQ]
Mice survived ([1]; 5 mg/kg SC, single dose day −1): 2/5 | Blood parasitemia suppression ([1]; 5 mg/kg TQ equivalent SC, single dose day −1): partial suppression of parasitemia | Mice survived ([1]; 7.5 mg/kg SC, single dose day −1): 4/5 | Mice survived ([1]; 10 mg/kg SC, single dose day −1): All mice survived | Mice survived ([1]; 10 mg/kg SC, single dose day −1, listed as SVCTQ polymer): 5/5 | Causal prophylaxis (complete parasite suppression) ([1]; 10 mg/kg TQ equivalent SC, single dose day −1): 100% | IVIS signal during days 1 to 3 ([1]; 10 mg/kg single dose day −1, pSVCTQ SC, TQ oral): completely suppressed | Activity compared to oral TQ (based on the TQ equivalent dose) ([1]; P. berghei prophylactic model, single dose day −1): approximately twofold; also recorded: approximately twice | Dose resulting in 50% hemolysis (TD50) ([2]; curve fit of Fig. 4B, single dose, pSVCTQ SC, TQ oral, day 7): 11.2 mg/kg | Reduction of hemotoxicity compared to oral TQ ([2]; from median effective doses): greater than twofold | Median effective dose (dose that results in 50% huRBC loss by day 7 relative to vehicle control) ([2]; single dose day 0, pSVCTQ SC, TQ oral, A− G6PD-deficient donor): 11.4 mg/kg
